The values below come from patent US7960384B2, “Dipeptidyl peptidase inhibitors” (Takeda Pharmaceutical Company Limited, priority 2006, dated 2011).

The assay has as its target Human DPP-IV (Homo sapiens, UniProt P27487). The assay is described as follows: DPP-IV Assay (protease inhibition, AP-AFC substrate). The assay is classed as biochemical. On the procedure: Solutions of test compounds in varying concentrations (≦10 mM final concentration) were prepared in Dimethyl Sulfoxide (DMSO) and then diluted into assay buffer comprising: 20 mM Tris, pH 7.4; 20 mM KCl; and 0.1 mg/mL BSA. Human DPP-IV (0.1 nM final concentration) was added to the dilutions and pre-incubated for 10 minutes at ambient temperature before the reaction was initiated with A-P-7-amido-4-trifluoromethylcoumarin (AP-AFC; 10 μM final concentration). The total volume of the reaction mixture was 10-100 μL depending on assay formats used (384 or 96 well plates). The reaction was followed kinetically (excitation λ=400 nm; emission λ=505 nm) for 5-10 minutes or an end-point was measured after 10 minutes. Inhibition constants (IC50) were calculated from the enzyme progress curves using standard mathematical models.

Sequence of Human DPP-IV (P27487 whole entry): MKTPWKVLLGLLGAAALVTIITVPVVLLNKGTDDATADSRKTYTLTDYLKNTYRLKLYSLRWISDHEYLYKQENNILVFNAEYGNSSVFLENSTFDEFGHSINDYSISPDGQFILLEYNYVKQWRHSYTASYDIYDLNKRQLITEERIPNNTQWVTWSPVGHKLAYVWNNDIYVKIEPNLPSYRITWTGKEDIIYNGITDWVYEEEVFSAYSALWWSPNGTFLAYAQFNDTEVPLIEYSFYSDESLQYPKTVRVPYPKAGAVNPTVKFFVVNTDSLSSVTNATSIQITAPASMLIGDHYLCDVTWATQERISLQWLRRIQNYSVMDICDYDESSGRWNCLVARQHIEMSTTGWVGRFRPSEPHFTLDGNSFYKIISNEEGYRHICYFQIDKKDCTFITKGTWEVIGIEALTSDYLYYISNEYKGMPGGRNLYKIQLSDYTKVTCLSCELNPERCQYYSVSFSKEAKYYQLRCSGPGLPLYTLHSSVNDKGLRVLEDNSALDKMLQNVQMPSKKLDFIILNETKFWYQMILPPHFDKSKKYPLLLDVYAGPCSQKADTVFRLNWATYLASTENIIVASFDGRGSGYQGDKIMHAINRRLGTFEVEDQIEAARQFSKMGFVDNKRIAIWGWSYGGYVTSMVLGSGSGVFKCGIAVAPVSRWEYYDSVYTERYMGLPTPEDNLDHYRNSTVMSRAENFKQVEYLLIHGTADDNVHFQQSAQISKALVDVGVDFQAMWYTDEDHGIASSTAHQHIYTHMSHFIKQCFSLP

Consider `COc1ccccc1-c1ccc2[nH]c(=O)c(=O)[nH]c2c1CN` [Example 1, 5-Aminomethyl-6-(2-methoxy-phenyl)-1,4-dihydro-quinoxaline-2,3-dione], for which the IC50 (commonly the concentration at which inhibition is half-maximal) (DPP-IV inhibition, Human DPP-IV 0.1 nM, AP-AFC 10 μM) is below 50 µM. Moreover, for the setting “tested in DPP-IV, FAPα, PREP and Tryptase assays”, the “selectivity in protease inhibition assays” value is given as “selective DPP-IV inhibitory activity”.
